Reference: PubChem BioAssay AID651630 (Sanford-Burnham Center for Chemical Genomics, 2012)
pIC50: −log10 of the molar value. The source made the active and inactive calls.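 How the source made its calls: active means lipid-stain IC50 at or below a set limit, with nuclear-stain toxicity IC50 at least five times higher; inactive means the rest.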

Columns and labels:
DAPI = test: TAG lipid buildup inhibition with viability readout – cell-based, panel, Nile Red and DAPI fluorescence, H9c2, dose response (AID 651630); details: H9c2 cells, DAPI nuclear fluorescence (cytotoxicity counter-readout), oleic acid;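 further: cells exposed to compound overnight before fixation and staining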
TAG = test: as above; details: H9c2 cells, Nile Red TAG fluorescence, oleic acid

SMILES | IC50 cytotoxicity (DAPI nuclear signal decrease) (DAPI; mean of runs) | IC50 cytotoxicity (DAPI nuclear signal decrease) (DAPI; run 1) [µM] | IC50 cytotoxicity (DAPI nuclear signal decrease) (DAPI; run 2) [µM] | pIC50 (TAG; mean of runs) | pIC50 (TAG; run 1) | pIC50 (TAG; run 2) | IC50 (TAG; mean of runs)
CCCCCc1cc(=O)oc2c(C(CCN3CCN(c4ccccc4)CC3)c3ccc4c(c3)OCO4)c(OC)cc(OC)c12 (configuration not stated) | > 25 µM (inactive) | > 25 | > 25 | 5.09 | 5.07 | 5.12 | –
COc1ccc2[nH]c3c(c2c1)CCN1C(=O)C(CC(=O)NCC24CC5CC(CC(C5)C2)C4)C[C@H](C(=O)N2CCOCC2)[C@@]31CCC1CCCC1 (some centres not stated) | > 25 µM (inactive) | > 25 | > 25 | – | 5.30 | < 4.60 | –
CCOc1ccc(C2=Nc3ccccc3C(c3ccc(N4CCOCC4)cc3)=NN2)cc1 | > 25 µM (inactive) | > 25 | > 25 | – | < 4.60 | 4.84 | –
CCOc1ccc(CCNC(=O)CN(C)S(=O)(=O)c2cccc3nsnc23)cc1OCC | > 25 µM (inactive) | > 25 | > 25 | – | 4.85 | 4.68 | 17.5 µM (inactive)
Cc1nn(-c2cccc(Cl)c2)c2nc(-c3ccncc3)cc(C(=O)N3CCOCC3)c12 | > 25 µM (inactive) | > 25 | > 25 | – | < 4.60 | < 4.60 | > 25 µM (inactive)
CCCc1[nH]n(-c2ccc([N+](=O)[O-])cc2)c(=O)c1C=NCCc1c[nH]c2ccccc12 | > 25 µM (inactive) | > 25 | > 25 | 4.92 | 4.99 | 4.87 | –
CCOc1ccc(CCNC(=O)CCc2nc(-c3ccc(C)cc3)no2)cc1OCC | > 25 µM (inactive) | > 25 | > 25 | – | < 4.60 | < 4.60 | > 25 µM (inactive)
COc1ccc2[nH]c3c(c2c1)CCN1C(=O)C(CC(=O)NCC24CC5CC(CC(C5)C2)C4)C[C@H](C(=O)N(C(C)C)C(C)C)[C@@]31C (some centres not stated) | > 25 µM (inactive) | > 25 | > 25 | – | 4.68 | < 4.60 | –
NC(=O)c1cccc(-c2ccnc3c2CC(C(=O)NCc2ccccc2)O3)c1 (configuration not stated) | > 25 µM (inactive) | > 25 | > 25 | – | < 4.60 | < 4.60 | > 25 µM (inactive)
Cc1ccc(-c2cc(C(F)F)n3ncc(C(=O)Nc4c(C)nn(Cc5c(Cl)cccc5Cl)c4C)c3n2)cc1 | > 25 µM (inactive) | > 25 | > 25 | – | < 4.60 | < 4.60 | > 25 µM (inactive)
COc1ccc([C@H]2CC(=O)C=C(c3ccc(OC)cc3OC)C2)cc1 | > 25 µM (inactive) | > 25 | > 25 | – | < 4.60 | < 4.60 | > 25 µM (inactive)
CC(C)(C)c1ccc(/C=N/NC(=O)Cc2c[nH]c3ccccc23)cc1 | > 25 µM (inactive) | > 25 | > 25 | – | 4.78 | 4.61 | 20.5 µM (inactive)
Cc1ccc2nc(NC(=O)CN(C)S(=O)(=O)c3cccc4nsnc34)sc2c1 | > 25 µM (inactive) | > 25 | > 25 | 4.98 | 4.95 | 5.00 | –
COc1ccc(OC)c(NS(=O)(=O)c2ccc(N3CCCC3=O)cc2)c1 | > 25 µM (inactive) | > 25 | > 25 | – | < 4.60 | < 4.60 | > 25 µM (inactive)
COc1ccc(CNC(=O)c2ccc(N3CCC4(CC3)CC(c3ccc(Cl)cc3)=NO4)c(NC(=O)Cc3ccc(F)cc3)c2)cc1 | > 25 µM (inactive) | > 25 | > 25 | – | < 4.60 | < 4.60 | > 25 µM (inactive)
CC1(C(=O)Nc2ccc3c(c2)OCO3)Cc2c(-c3cccc(C(N)=O)c3)ccnc2O1 (configuration not stated) | > 25 µM (inactive) | > 25 | > 25 | – | < 4.60 | 4.72 | –
